Assay results reported in patent US20170009266A1, “PROCESS FOR THE ATTACHMENT OF A GALNAC MOIETY COMPRISING A (HETERO)ARYL GROUP TO A GLCNAC MOIETY, AND PRODUCT OBTAINED THEREBY” (SYNAFFIX B.V., priority 2014, published 2017).
Positions count from the first letter of the chain named.

Key:
Gal-T1(Y289L) = molecular target: T1, Gal-T1(Y289L) (Bos taurus, UniProt P08037, I205M/L206V/P187L/V158I/Y289L); experiment: Glycosyltransfer to trimmed trastuzumab with Gal-T1(Y289L) expressed in CHO; format: biochemical, bovine; conditions: trimmed trastuzumab 10 mg/mL; UDP derivative 5 mM; enzyme 0.5 mg/mL; pH 8.0, 30° C. overnight
T1 construct: host or cells: CHO K1
T1 sequence (P08037 74-402 V158I/P187L/I205M/L206V/Y289L): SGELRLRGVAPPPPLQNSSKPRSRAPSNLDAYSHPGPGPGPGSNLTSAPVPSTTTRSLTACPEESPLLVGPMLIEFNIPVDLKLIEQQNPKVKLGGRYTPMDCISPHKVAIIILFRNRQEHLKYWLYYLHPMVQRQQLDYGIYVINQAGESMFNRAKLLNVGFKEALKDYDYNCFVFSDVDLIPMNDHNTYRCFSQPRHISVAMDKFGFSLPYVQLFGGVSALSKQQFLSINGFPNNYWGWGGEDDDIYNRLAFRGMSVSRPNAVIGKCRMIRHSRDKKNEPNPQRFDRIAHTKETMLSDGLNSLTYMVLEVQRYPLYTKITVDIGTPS
Text: (§1) A set of Gal-T 1 mutants encoding residues 74-402 of bovine Gal-T 1 were transiently expressed in CHO K1 cells by Evitria (Zurich, Switzerland) which include the Gal-T1 single mutants Y289L (represented by SEQ ID NO: 26), Y289F (represented by SEQ ID NO: 27), Y289M (represented by SEQ ID NO: 28), Y289V (represented by SEQ ID NO: 29), Y289A (represented by SEQ ID NO: 30), and Y289G (represented by SEQ ID NO: 31), and the Gal-T1 double mutants Y289L,C342T (represented by SEQ ID NO: 32), and Y289M,C342T (represented by SEQ ID NO: 33). The mutants were purified using a cation exchange column (Source 15S HR16/10 column, GE Healthcare) as described above. Purified proteins were analyzed by SDS-PAGE.
(§2) Trimmed trastuzumab (10 mg/mL, […] obtained by Endo S treatment of trastuzumab, was incubated with the 4-azido-3,5-difluorobenzoyl derivative of UDP-galactosamine (23, 5 mM) and one of the Gal-T1 single mutants Y289L, Y289M, Y289A or Y289G (expressed in CHO as described above) (0.5 mg/mL) in 10 mM MnCl2 and 25 mM Tris-HCl pH 8.0 at 30° C. overnight. Mass spectral analysis of the reduced sample indicated a partial conversion of the core GlcNac(Fuc)-substituted trastuzumab heavy chain (49504 Da) into product 30 (49818 to 49825 Da, 20 to 50% of total heavy chain depending on the Gal-T1 mutant used), resulting from transfer of 23 to core GlcNAc(Fuc)-substituted trastuzumab heavy chain. […]

Gal-T1(Y289A) = molecular target: T2, Gal-T1(Y289A) (Bos taurus, UniProt P08037, I205M/L206V/P187L/V158I/Y289A); experiment: Glycosyltransfer to trimmed trastuzumab with Gal-T1(Y289A) expressed in CHO; format: biochemical, bovine; conditions: trimmed trastuzumab 10 mg/mL; UDP derivative 5 mM; enzyme 0.5 mg/mL; pH 8.0, 30° C. overnight
T2 construct: host or cells: CHO K1
T2 sequence (P08037 74-402 V158I/P187L/I205M/L206V/Y289A): T1 sequence (P08037 74-402 V158I/P187L/I205M/L206V/Y289L) with L216A
Text: as §1, §2

## [N-]=[N+]=Nc1c(F)cc(C(=O)N[C@H]2[C@@H](OP(=O)(O)OP(=O)(O)OC[C@H]3O[C@@H](n4ccc(=O)[nH]c4=O)[C@H](O)[C@@H]3O)O[C@H](CO)[C@H](O)[C@@H]2O)cc1F [Compound 23, 4-azido-3,5-difluorobenzoyl Derivative of UDP-GalNH2]
Gal-T1(Y289L)
  observed conversion: approximately 30%
Gal-T1(Y289A)
  observed conversion: approximately 20%
